Some test systems named below: HCT-15 colon; NCI-H522 lung; NCI-H460 lung; COLO 205 colon; ACHN renal; SK-MEL-28 melanoma; HCC-2998 colon; NCI/ADR-RES ovarian; T-47D breast.
Assay in all cases: NCI tumour cell line growth inhibition, 48 h

Where “and” joins values, the source holds several entries; their conditions need not be identical. Equal values may be shown once.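 Test compounds were applied to cells in 96-well plates for 48 hours at 5 doses. Here, GI50 denotes the concentration required for 50% inhibition of growth. Definition used: TGI = concentration required for complete inhibition of growth.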

Consider `CC1(C)CCc2cc3c(cc2O1)OC(C)(C)C1c2c(ccc4c2CCC(C)(C)O4)OC31` (configuration not stated), for which the TGI in the test on HCT-15 colon, with NCI-H522 lung, in the test on NCI-H460 lung, in the test with COLO 205 colon and in the test on ACHN renal was > 100 µM each time.
For `CCCNC(=O)c1cc2ccccc2cc1C(=O)OC`, the TGI with HCT-15 colon, in the test on NCI-H522 lung, in the test on SK-MEL-28 melanoma, with NCI-H460 lung, with COLO 205 colon and in the test with HCC-2998 colon was > 100 µM throughout. For the same molecule, in the test on ACHN renal, the TGI is > 100 µM.
Regarding `CC1SC2=NC3=C(c4ccccc4C3=O)C(c3ccc(Br)cc3)N2C1=O` (configuration not stated), the TGI with HCT-15 colon is > 100 µM; in the test with NCI-H522 lung it was 48.3 µM; in the test with SK-MEL-28 melanoma, > 100 µM; in the test with NCI-H460 lung, > 100 µM; in the test with COLO 205 colon, > 100 µM; in the test with HCC-2998 colon, > 100 µM. For the same molecule, the TGI in the test with ACHN renal is > 100 µM.
For `Cc1cc2nc3ccc(N=Nc4ccc(N(C)C)cc4)cc3n(-c3ccccc3)c-2cc1=N`, the GI50 in the test with HCT-15 colon is 0.0273 µM and 0.177 µM; with NCI-H522 lung, 0.0199 µM and 0.147 µM; with SK-MEL-28 melanoma it was 0.0573 µM; in the test on NCI-H460 lung it was 0.0146 µM; in the test with NCI/ADR-RES ovarian, 0.279 µM; with COLO 205 colon it was 0.00343 µM. The GI50 was 0.0431 µM in the test with HCC-2998 colon; 0.0233 µM and 0.21 µM in the test with ACHN renal; 0.00296 µM in the test on T-47D breast. Also, the TGI was 0.259 µM and 1.31 µM with HCT-15 colon; 0.241 µM with SK-MEL-28 melanoma; 0.0527 µM in the test on NCI-H460 lung; 3.13 µM in the test with NCI/ADR-RES ovarian; 0.0216 µM with COLO 205 colon; 1.6 µM with HCC-2998 colon. Also, the TGI in the test with T-47D breast worked out at 0.0706 µM.
As to `COc1cc(C2[C@H]3C(=O)N(c4ccc(Cc5ccc(N6C(=O)[C@@H]7ON(c8ccccc8)C(c8cc(OC)c(OC)c(OC)c8)[C@@H]7C6=O)cc5)cc4)C(=O)[C@H]3ON2c2ccccc2)cc(OC)c1OC` (some centres not stated), the TGI in the test with HCT-15 colon, in the test with NCI-H522 lung, with SK-MEL-28 melanoma, in the test with NCI-H460 lung, with COLO 205 colon and in the test with HCC-2998 colon was > 100 µM each time. Further, in the test with ACHN renal, the TGI was > 100 µM.
In the case of `CC(C)O/C=C1\C(=O)C2(SCCS2)[C@H]2CCCC[C@@H]12`, the TGI in the test with HCT-15 colon was > 100 µM; with NCI-H522 lung it was 53.9 µM; in the test with SK-MEL-28 melanoma, > 100 µM; in the test on NCI-H460 lung, > 100 µM; with COLO 205 colon, 33.4 µM; with HCC-2998 colon it was > 100 µM. Besides, the TGI in the test with ACHN renal is > 100 µM.
Take `O=C1Cc2ccccc2N1/N=C\c1ccc(O)cc1`: the TGI in the test with HCT-15 colon, with SK-MEL-28 melanoma, in the test on NCI-H460 lung, with COLO 205 colon, in the test on HCC-2998 colon and with ACHN renal was > 100 µM in each case.
In the case of `CSc1nc2c(nc(N)n2C2OCC(O)C(O)C2O)c(=O)[nH]1` (configuration not stated), the TGI in the test with NCI-H522 lung, with SK-MEL-28 melanoma, with NCI-H460 lung, in the test with COLO 205 colon, with HCC-2998 colon and in the test on ACHN renal was > 100 µM each time.
`CNC1=C(C)C(=O)C(C)=C(C(C)(C)CC(=O)n2cc(F)c(=O)[nH]c2=O)C1=O`: the TGI in the test on HCT-15 colon, in the test with NCI-H522 lung, in the test on SK-MEL-28 melanoma, in the test on NCI-H460 lung, in the test with COLO 205 colon and in the test with HCC-2998 colon was > 100 µM throughout. Besides, the TGI in the test with ACHN renal is > 100 µM.
As for `Cn1c(=O)c(C(c2ccccc2)c2c(O)c3ccccc3n(C)c2=O)c(O)c2ccccc21`, the TGI in the test with NCI-H522 lung, with SK-MEL-28 melanoma, with NCI-H460 lung, in the test with COLO 205 colon, with HCC-2998 colon and in the test with ACHN renal was > 100 µM each time.
As for `NNC(=O)CC(=O)Nc1ccccc1F`, the TGI with HCT-15 colon, in the test with NCI-H522 lung, in the test with SK-MEL-28 melanoma, with NCI-H460 lung, with COLO 205 colon and with HCC-2998 colon was > 100 µM throughout. The TGI in the test on ACHN renal was > 100 µM.
For the molecule `COc1ccc(CNc2nc3ccccc3nc2-c2cccs2)cc1OC`, the TGI in the test with HCT-15 colon, in the test on SK-MEL-28 melanoma, in the test on NCI-H460 lung, in the test on COLO 205 colon, in the test with HCC-2998 colon and in the test with ACHN renal was > 100 µM in each case.
As for `Cc1c(N2C(=O)/C(=C\c3ccc(O)cc3)N=C2c2ccccc2)c(=O)n(-c2ccccc2)n1C`, the GI50 with HCT-15 colon, with NCI-H522 lung, in the test on SK-MEL-28 melanoma, in the test with NCI-H460 lung, in the test with NCI/ADR-RES ovarian and in the test with COLO 205 colon was > 100 µM in each case. Moreover, the GI50 in the test on HCC-2998 colon, with ACHN renal and with T-47D breast was > 100 µM in each case. In addition, the TGI in the test on HCT-15 colon, with NCI-H522 lung, with SK-MEL-28 melanoma, with NCI-H460 lung, in the test with NCI/ADR-RES ovarian and in the test with COLO 205 colon was > 100 µM in each case. Besides, the TGI with HCC-2998 colon, in the test on ACHN renal and in the test with T-47D breast was > 100 µM in each case.
For `CCN(CC)C(=O)c1c(N2CCOCC2)cc(N(CC)CC)oc1=O`, the TGI in the test with HCT-15 colon, in the test on NCI-H522 lung, in the test on SK-MEL-28 melanoma, in the test with NCI-H460 lung, in the test on COLO 205 colon and in the test on HCC-2998 colon was > 100 µM throughout. In addition, the TGI in the test on ACHN renal was > 100 µM.
`OCCc1cnco1`: the TGI in the test on NCI-H522 lung, with SK-MEL-28 melanoma, in the test on NCI-H460 lung, in the test with COLO 205 colon and in the test with HCC-2998 colon was > 100 µM throughout.

The values above are taken from PubChem BioAssay (NCI).
